This passage reports melting point results from US6987106B1, “1,4-diazabicyclo[3.2.2]nonane-4-carboxylates and carboxamide derivates, production and use thereof in therapeutics” (Sanofi-Aventis, priority 1999, dated 2006).

What is called melting point is the temperature, or range, at which the solid turns liquid.

Structures are written as SMILES.

Turning to `Br.CN(C(=O)N1CCN2CCC1CC2)c1ccccc1`, the melting point lay in the range of 206 to 207 °C.
